In publication PMC4550478, “Metronidazole-triazole conjugates: Activity against Clostridium difficile and parasites” (European Journal of Medicinal Chemistry, 2015) one finds MIC data, which are given here for eight compounds.

The structures appear in SMILES notation. Values after ≈ are worked out from the molar mass of the structure shown. Read-outs that look alike come from different tables or passages of the source. A value given as a limit tells only on which side of the number the result lay.

What all share (assay type): cell-based, Clostridium difficile
Assay [1] deals with C. difficile VPI10463 ATCC 43255. As to the kind of experiment: MIC broth microdilution, C. difficile VPI 10463. The conditions noted are these: Clostridioides difficile, ATCC 43255 / ATCC BAA-1803; VPI 10463, MtzS, 24 h, median of at least n = 4. Here is the method: (§1) All compounds were tested for activity against a set of anaerobic C. difficile bacteria (630 ATCC BAA-1382, NAP1/027 M7404, NAP1/027 ATCC BAA-1803, VPI10463 ATCC 43255, CD26A54_S and CD26A54_R) and representative ESKAPE pathogens S. aureus (MRSA ATCC 43300), E. coli (ATCC 25922), K. pneumoniae (ATCC 700603), A. baumannii (ATCC 19606) and P. aeruginosa (ATCC 27853) using a standard broth microdilution assay. Selected compounds were tested for activity against H. pylori strains (26695, and clinical isolates MtzS 13/25, MtzR 98/285 and MtzR 13/61) using agar plate dilution, and for antimicrobial activity against […] Gram-positive bacterial strains: Enterococcus faecalis (VanA clinical isolate), Enterococcus faecium (MDR VanA ATCC 51559), Streptococcus pneumoniae (MDR ATCC 700677), S. aureus (MRSA ATCC 43300, MRSA clinical isolate, MRSA/DRSA clinical isolate, GISA NARSA NRS 1, GISA NARSA NRS 17, VRSA NARSA VRS1, VRSA NARSA VRS4 and VRSA NARSA VRS10) using broth microdilution. C. difficile strains were grown at 37 °C in a COY anaerobic chamber (5% H2, 10% CO2, 85% N2). H. pylori strains were grown at 37 °C under a microaerobic atmosphere (5% O2, 10% CO2). All facultative anaerobic bacteria were grown at 37 °C with normal atmospheric oxygen levels. All experiments were performed in duplicate with metronidazole, vancomycin, linezolid or colistin as positive controls for relevant strains (see Table 1). Positive growth control of bacteria and DMSO as well as a negative control of only media were included for every plate. Full assay details are provided in the supplementary information.
(§2) C. difficile ATCC BAA-1382, ATCC BAA-1803, ATCC 43255 and M7404 heat shocked spore stocks (10 µL) were transferred into the anaerobic chamber and 10 µL streaked onto pre-reduced (at least 2.5 hr in anaerobic chamber) BHIS agar plates supplemented with 0.1% w/v sodium taurocholate (BHIS(TA)). Plates were incubated for 24 hours prior to assay to give colonies of size 1-3mm diameter with characteristic uneven borders.
(§3) The minimum inhibition concentration was determined according to the CLSI Methods with modifications in broth and inoculum for C. difficile according to Babakhani et al.^7,8 Briefly, compounds were prepared to 20X final concentration in 100% water, 60% DMSO and 40% water or 60% DMSO and 40% media. The compounds along with standard antibiotics were serially diluted two-fold across the wells of 96-well non-binding surface plates (Non binding surface, Corning). The plates were placed in the anaerobic chamber overnight to reduce. C. difficile bacteria from BHIS(TA) agar plates were cultured anaerobically in BHIS at 37 °C overnight. A sample of culture was then diluted 40-fold in BHIS broth and incubated at 37 °C for approximately 4.5 hrs. The resultant mid-log phase culture (OD600= 0.5-0.6) was diluted to the final concentration of ~1×10^6 CFU/mL, then 50 µL was added to each well of the compound-containing 96-well plates. This gave final cell concentration of 5×10^5 CFU/mL, final volume 100 µL and 3% maximum DMSO concentration. Compound concentration was typically from 64 to 0.03 µg/mL. An antibiotic standard was included on each 96 well plate as well as a positive growth control (no compound) and sterility control (no bacteria). All the plates were covered and incubated at 37 °C for 24 h. MICs were the lowest concentration showing no visible growth.

The subject of assay [2] is C. difficile NAP1/027 ATCC BAA-1803. Nature of the assay: MIC broth microdilution, C. difficile NAP1/027 ATCC BAA-1803. The conditions noted are these: Clostridioides difficile. As for the experimental part:
as §1, §2
as §3, with “All the plates were covered and incubated at 37 °C for 24 h.” left out

In assay [3] the test system is C. difficile NAP1/027 M7404. Nature of the assay: MIC broth microdilution, C. difficile NAP1/027 M7404. The note with it: Clostridioides difficile, NAP1/027M7404; NAP1/027 (footnote d: M7404), MtzS, 24 h, median of at least n = 4. Here is the method:
as §1, §2, §3
A general note: Broth dilution looks for growth in wells or tubes with falling amounts of substance.

Setting [4] is: ATCC 43255 / ATCC BAA-1803, NAP1/027 (footnote c: ATCC 43255), MtzS, 24 h, median of at least n = 4, read-out: MIC C. difficile NAP1/027 (footnote c).
The mark [5] stands for this setting: ATCCBAA1803, 24 hr incubation, read-out: MIC C. difficile NAP1/027 ATCC BAA-1803 24 hr.
Where [6] appears, read: ATCCBAA1803, 48 hr incubation, read-out: MIC C. difficile NAP1/027 ATCC BAA-1803 48 hr.

For the compound `Cc1ncc([N+](=O)[O-])n1CCn1cc(-c2ccc(Cl)cc2)nn1` [Compound 4c, 1-(2-(2-methyl-5-nitro-1H-imidazol-1-yl)ethyl)-4-(4-chlorophenyl)-1H-1,2,3-triazole], the MIC in assay [1] is 0.25 µg/mL (≈ 0.751 µM); in assay [2] (setting [4]), 0.25 µg/mL (≈ 0.751 µM); in assay [2] (setting [5]), 0.25 µg/mL (≈ 0.751 µM); in assay [2] (setting [6]), 0.5 µg/mL (≈ 1.5 µM); in assay [3], 0.25 µg/mL (≈ 0.751 µM).

In the case of `Cc1ncc([N+](=O)[O-])n1CCn1cc(-c2ccccn2)nn1` [Compound 4h, 1-(2-(2-methyl-5-nitro-1H-imidazol-1-yl)ethyl)-4-(2-pyridinyl)-1H-1,2,3-triazole.xTFA], the MIC was 0.5 µg/mL in assay [1]; 0.5 µg/mL in assay [2] (setting [4]); 0.5 µg/mL in assay [2] (setting [5]); 0.5 to 1 µg/mL in assay [2] (setting [6]); 0.5 µg/mL in assay [3].

With `Cc1ncc([N+](=O)[O-])n1CCn1cc(CCO)nn1` [Compound 4p, 1-(2-(2-methyl-5-nitro-1H-imidazol-1-yl)ethyl)-4-(2-hydroxyethyl)-1H-1,2,3-triazole], the MIC in assay [1] is 8 µg/mL (≈ 30 µM); in assay [2] (setting [4]), 16 µg/mL (≈ 60.1 µM); in assay [2] (setting [5]), 8 µg/mL (≈ 30 µM); in assay [2] (setting [6]) it was 8 to 16 µg/mL (≈ 30 to 60.1 µM); in assay [3], 8 µg/mL (≈ 30 µM).

On to `Cc1ncc([N+](=O)[O-])n1CCn1cc(Cc2ccccc2)nn1` [Compound 4k, 1-(2-(2-methyl-5-nitro-1H-imidazol-1-yl)ethyl)-4-benzyl-1H-1,2,3-triazole], for which the MIC was 0.25 to 0.5 µg/mL (≈ 0.8 to 1.6 µM) in assay [1]; 0.5 µg/mL (≈ 1.6 µM) in assay [2] (setting [4]); 0.5 µg/mL (≈ 1.6 µM) in assay [2] (setting [5]); 0.5 µg/mL (≈ 1.6 µM) in assay [2] (setting [6]); 0.5 µg/mL (≈ 1.6 µM) in assay [3].

On to `Cc1ncc([N+](=O)[O-])n1CCn1cc(CN(C)Cc2ccccc2)nn1` [Compound 4m, 1-(2-(2-methyl-5-nitro-1H-imidazol-1-yl)ethyl)-4-(N-benzyl, N-methylaminomethyl)-1H-1,2,3-triazole], for which the MIC in assay [1] was 1 to 2 µg/mL (≈ 2.81 to 5.63 µM); in assay [2] (setting [4]) it was 1 µg/mL (≈ 2.81 µM); in assay [2] (setting [5]), 2 µg/mL (≈ 5.63 µM); in assay [2] (setting [6]), 1 to 2 µg/mL (≈ 2.81 to 5.63 µM); in assay [3] it was 2 µg/mL (≈ 5.63 µM).

On to `Cc1ncc([N+](=O)[O-])n1CCn1cc(-c2ccccc2)nn1` [Compound 4a, 1-(2-(2-methyl-5-nitro-1H-imidazol-1-yl)ethyl)-4-phenyl-1H-1,2,3-triazole], for which the MIC is 0.25 to 0.5 µg/mL (≈ 0.838 to 1.68 µM) in assay [1]; 0.5 µg/mL (≈ 1.68 µM) in assay [2] (setting [4]); 0.5 µg/mL (≈ 1.68 µM) in assay [2] (setting [5]); 0.5 µg/mL (≈ 1.68 µM) in assay [2] (setting [6]); 0.5 µg/mL (≈ 1.68 µM) in assay [3].

Take `Cc1ncc([N+](=O)[O-])n1CCn1cc(CCC(=O)O)nn1` [Compound 4r, sodium 1-(2-(2-methyl-5-nitro-1H-imidazol-1-yl)ethyl)-4-(carboxyethyl)-1H-1,2,3-triazole]: the MIC in assay [1], in assay [2] (setting [4]), in assay [2] (setting [5]), in assay [2] (setting [6]) and in assay [3] was above 64 µg/mL in each case.

On to `Cc1ccc(-c2cn(CCn3c([N+](=O)[O-])cnc3C)nn2)cc1` [Compound 4e, 1-(2-(2-methyl-5-nitro-1H-imidazol-1-yl)ethyl)-4-(p-tolyl)-1H-1,2,3-triazole], for which the MIC in assay [1] was 0.25 µg/mL (≈ 0.8 µM); in assay [2] (setting [4]) it was 0.5 µg/mL (≈ 1.6 µM); in assay [2] (setting [5]) it was 0.5 µg/mL (≈ 1.6 µM); in assay [2] (setting [6]), 0.5 µg/mL (≈ 1.6 µM); in assay [3] it was 0.5 µg/mL (≈ 1.6 µM).
